Reference: US20030203890A1 (priority 2001, published 2003)
Like-named read-outs stand apart in the source and are kept apart here. Values belong to the compound of their own block, whether it stands above or below them.

How the values were obtained:
cavernous nerve = assay: Intracavernosal pressure (ICP) response to electrostimulation after cavernous nerve crush injury; assay type: in vivo, Sprague-Dawley rats; settings: for ICP response, Control side: control (intact) side; for ICP response, Control side / ICP response, Crush side: 1 day following R-cavernous nerve crush, i.p., FK506 1 mg/kg, Compound 153 15 mg/kg, +/- sem; for ICP response, Crush side: crush (injured) side
Description: (§1) Cavernous nerve injury was performed in 12 week old Sprague-Dawley rats by crushing the right cavernous nerve for 3×15 seconds with a fine tip forceps. The rats were treated with saline or Compound 153 (15 mg/kg i.p.) just prior to nerve crush. The right and left major pelvic ganglia were processed for nNOS immunoreactivity. Intracavernosal pressure (ICP) responses to electrostimulation of the right (injured) and left (intact) cavernous nerves were recorded for each animal at 24 hours or 7 days post injury.

sciatic nerve = settings: rats with crushed sciatic nerves; Gold et al. 1994/1995, Steiner et al. 1997; cited from earlier work
FKBP12 = FKBP12 (Homo sapiens, UniProt P62942); assay: K1 test procedure: inhibition of peptidyl-prolyl isomerase (rotamase) activity of FKBP12, chymotrypsin-coupled assay; assay type: biochemical
FKBP12, sequence (P62942 whole entry, species assumed): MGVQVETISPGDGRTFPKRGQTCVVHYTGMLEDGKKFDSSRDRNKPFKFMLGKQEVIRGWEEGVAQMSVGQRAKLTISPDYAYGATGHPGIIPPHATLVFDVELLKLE
Description: The inhibition of the prolyl peptidyl cis-trans isomerase activity of FKBP may be measured as an indicator of this affinity.
The cis-trans isomerization of an alanine-proline bond in a model substrate, N-succinyl-Ala-Ala-Pro-Phe-p-nitroanilide, is monitored spectrophotometrically in a chymotrypsin-coupled assay, which releases paranitroanilide from the trans form of the substrate. The inhibition of this reaction caused by the addition of different concentrations of inhibitor is determined, and the data is analyzed as a change in first-order rate constant as a function of inhibitor concentration to yield the apparent K1 values.
In a plastic cuvette are added […] of ice cold assay buffer (25 mM HEPES, pH 7.8, 100 mM NaCl), […] of FKBP (2.5 mM in 10 mM Tris-Cl pH 7.5, 100 mM NaCl, 1 mM dithiothreitol), […] of chymotrypsin (50 mg/ml in 1 mM HCl) and […] of test compound at various concentrations in dimethyl sulfoxide.

major pelvic ganglia [1] = assay: nNOS immunoreactivity of right and left major pelvic ganglia after cavernous nerve crush; assay type: in vivo, Sprague-Dawley rats; settings: FIG. 1; rat right cavernous nerve crush; 15 mg/kg i.p. just prior to nerve crush
Description: as §1

major pelvic ganglia [2] = assay: Cresyl Violet staining of right and left major pelvic ganglia after cavernous nerve crush; assay type: in vivo, Sprague-Dawley rats; settings: FIG. 2; rat right cavernous nerve crush
[3] = apparent Ki, rotamase inhibition, Table XLI, Formulas I to XIV, read-out: Ki
[4] = relative potency ranking, Table XLII, Formulas XV to XXIV, read-out: Ki
[5] = apparent Ki, rotamase inhibition, Table XLIII, Formulas XXV to XXIX, read-out: K1

Ki (FKBP12; [4]): 0.051 to 0.2 µM
Structure (SMILES): CCC(C)(C)NC(=O)N1CCC[C@H]1C(=O)SCCCc1cccnc1 [compound 102]

Ki (FKBP12; [4]): 0.051 to 0.2 µM
Structure (SMILES): COc1ccc(CCCSC(=O)C2CCCN2C(=S)NC2CCCCC2)cc1 (stereo not shown) [compound 105]

Ki (FKBP12; [4]): 0.001 to 0.05 µM
Structure (SMILES): CCC(C)(C)NC(=S)N1CCCC1C(=O)SCCCc1cccnc1 (stereo not shown) [compound 109]

Ki (FKBP12; [4]): 0.001 to 0.05 µM
Structure (SMILES): CCC(C)(C)NC(=O)N1CCCC1C(=O)SCCC(c1ccccc1)c1ccccc1 (stereo not shown) [compound 110]

Ki (FKBP12; [4]): 0.051 to 0.2 µM
Structure (SMILES): COc1ccc(CCCSC(=O)[C@@H]2CCCN2S(=O)(=O)c2ccccc2)cc1 [compound 120, 3-(para-Methoxyphenyl)-1-propylmercaptyl(2S)-N-(benzenesulfonyl)pyrrolidine-2-carboxylate]

Ki (FKBP12; [4]): 0.051 to 0.2 µM
Structure (SMILES): COc1ccc(CCCSC(=O)[C@@H]2CCCN2S(=O)(=O)Cc2ccccc2)cc1 [compound 121, 3-(para-Methoxyphenyl)-1-propylmercaptyl(2S)-N-(a-toluenesulfonyl)pyrrolidine-2-carboxylate]

Ki (FKBP12; [4]): 0.201 to 0.5 µM
Structure (SMILES): COc1ccc(CCCSC(=O)[C@@H]2CCCN2S(=O)(=O)c2ccc(C)cc2)cc1 [compound 122, 3-(para-Methoxyphenyl)-1-propylmercaptyl(2S)-N-(a-toluenesulfonyl)pyrrolidine-2-carboxylate]

The next lines start with the compound.

Structure (SMILES): C=CC[C@@H]1/C=C(\C)C[C@H](C)C[C@H](OC)[C@H]2O[C@@](O)(C(=O)C(=O)N3CCCC[C@H]3C(=O)O[C@H](/C(C)=C/[C@@H]3CC[C@@H](O)[C@H](OC)C3)[C@H](C)[C@@H](O)CC1=O)[C@H](C)C[C@@H]2OC [FK506, reference compound]
ICP response, Control side (cavernous nerve): 36.9 +/− 7.7
ICP response, Crush side (cavernous nerve): 32.0 +/− 6.7

Structure (SMILES): CC[C@@H]1/C=C(\C)[C@@H](O)[C@H](C)C[C@H](OC)[C@H]2O[C@@](O)(C(=O)C(=O)N3CCCC[C@H]3C(=O)O[C@H](/C(C)=C/[C@@H]3CC[C@@H](O)[C@H](OC)C3)[C@H](C)[C@@H](O)CC1=O)[C@H](C)C[C@@H]2OC [L-685,818]
nerve regeneration and morphological/functional recovery following sciatic nerve crush (sciatic nerve): as effective as FK506

Structure (SMILES): O=C(C(=O)N1CCC[C@H]1C(=O)SCCCCc1ccccc1)C1CCCCC1 [compound 33]
Ki (FKBP12; [3]): 1.7 µM

Structure (SMILES): CCC(C)(C)C(=O)C(=O)N1CCC[C@H]1C(=O)SCCCc1cccc2ccccc12 [compound 47]
Ki (FKBP12; [3]): 0.021 µM

Structure (SMILES): CCC(C)(C)C(=O)C(=O)N1CCC[C@H]1C(=O)OCCCc1ccc[n+]([O-])c1 [compound 95]
Ki (FKBP12; [3]): 0.225 µM

Structure (SMILES): CCC(C)CNC(=O)N1CCC[C@H]1C(=O)SCCCc1cccnc1 (stereo partly drawn) [compound 101, 3-(3-Pyridyl)-1-propylmercaptyl 2S-1-[(2-methylbutyl)carbamoyl]pyrrolidine-2-carboxylate]
Ki (FKBP12; [4]): 0.001 to 0.05 µM

Structure (SMILES): O=C(SC(CCc1ccccc1)CCc1ccccc1)C1CCCCN1C(=O)NC1CCCCC1 (stereo not shown) [compound 114]
Ki (FKBP12; [4]): 0.001 to 0.05 µM

Structure (SMILES): CCC(C)(C)C(=O)C(=O)N1CCC[C@H]1C(=O)OC/C=C/c1cc(OC)ccc1OC [compound 151, 3-(2,5-dimethoxyphenyl)-1-prop-2-(E)-enyl (2S)-1-(3,3-dimethyl-1,2-dioxopentyl)-2-pyrrolidine-carboxylate]
Ki (FKBP12; [5]): 0.45 µM

Structure (SMILES): CCC(C)(C)C(=O)C(=O)N1CCC[C@H]1C(=O)OCCCc1cccnc1 [compound 153, 3-(3-Pyridyl)-1-propyl (2S)-1-(3,3-dimethyl-1,2-dioxopentyl)-2-pyrrolidinecarboxylate]
effect of administration on crushed cavernous nerves (cavernous nerve; Example 30, rats, 15 mg/kg i.p. just prior to nerve crush): regenerate the penile cavernous nerve
ICP response, Control side (cavernous nerve): 42.8 +/− 1.9
ICP response, Crush side (cavernous nerve): 42.7 +/− 2.2
effect on the right and left major pelvic ganglia as processed for nNOS immunoreactivity (major pelvic ganglia [1]): protective effect
effect on the right and left major pelvic ganglia as processed for Cresyl Violet staining (major pelvic ganglia [2]): protective effect

Structure (SMILES): CC1(C)COC(=O)CCCCCCCCCCCOC(=O)[C@@H]2CCCCN2C(=O)C1=O [compound 186, (24aS)-17,17-dimethylperhydropyrido[2,1-c] [1,9,4]dioxazacyclohenicosine-1,14,18,19-tetraone]
Ki (FKBP12; [5]): 0.15 µM
